These results are taken from patent US20230295118A1 (EnhancedBio Inc., priority 2022, published 2023).

pIC50: −log10 of the molar value.

As a reminder, the DC50 is the concentration at which degradation of the target reaches its halfway point. A low value points to a more potent degrader. In general, Dmax refers to the largest share of the target that was removed.

What all share (assay type): cell-based
In one test the target is T1, CDK6 (Homo sapiens, UniProt Q00534).
T1 construct: endogenous in cells
The test is described as follows: CDK6 degradation (DC50, Dmax).

In test [1] the test system is mantle cell lymphoma cell (Mino or JeKo-1). The test is described as follows: Antiproliferative effect, MTS cell viability assay. Conditions: 72 h; for pIC50: mantle cell lymphoma cell (Mino or JeKo-1), MTS assay, read-out: IC50 (anti-proliferation). In short, it runs like this:
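Mino cells treated with compounds at 0, 0.0001, 0.001, 0.01, 0.1, 1 μM for 72 h; palbociclib and abemaciclib as positive controls. Viability by MTS, formazan absorbance read at 490 nm.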
(In general: Tetrazolium assays rely on reduction of a dye to a coloured formazan, in cell work by metabolically active cells.)

The target of the next test is T2, CDK4 (Homo sapiens, UniProt P11802).
T2 construct: endogenous in cells
Kind of test: CDK4 degradation (DC50, Dmax).

T2 sequence (P11802 whole entry): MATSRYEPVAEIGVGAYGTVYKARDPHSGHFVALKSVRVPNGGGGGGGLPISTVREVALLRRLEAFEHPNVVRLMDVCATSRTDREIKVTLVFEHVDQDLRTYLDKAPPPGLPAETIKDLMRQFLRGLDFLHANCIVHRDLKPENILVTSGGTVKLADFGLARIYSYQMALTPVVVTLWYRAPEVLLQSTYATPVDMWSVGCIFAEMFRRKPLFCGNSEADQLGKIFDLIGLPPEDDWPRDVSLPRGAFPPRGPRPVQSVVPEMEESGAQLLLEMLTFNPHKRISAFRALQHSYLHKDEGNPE
T1 sequence (Q00534 whole entry): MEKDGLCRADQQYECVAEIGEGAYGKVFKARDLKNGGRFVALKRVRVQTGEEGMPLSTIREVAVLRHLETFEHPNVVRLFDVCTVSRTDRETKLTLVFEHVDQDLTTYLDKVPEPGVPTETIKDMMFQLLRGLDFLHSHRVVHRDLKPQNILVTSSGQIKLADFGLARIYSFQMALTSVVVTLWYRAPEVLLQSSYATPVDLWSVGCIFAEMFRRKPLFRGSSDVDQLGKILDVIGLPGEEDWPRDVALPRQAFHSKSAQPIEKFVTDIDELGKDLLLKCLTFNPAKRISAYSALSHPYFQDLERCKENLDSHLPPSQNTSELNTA

In the case of `CC(=O)c1c(C)c2cnc(Nc3ccc(N4CCN(C(=O)N5CCN(CCN6CCN(c7ccc8c(c7)CN(C7CCC(=O)NC7=O)C8=O)CC6)CC5)CC4)cn3)nc2n(C2CCCC2)c1=O` (centres unmarked) [Compound 22, 3-(5-(4-(2-(4-(4-(6-((6-acetyl-8-cyclopentyl-5-methyl-7-oxo-7,8-dihydropyrido[2,3-d]pyrimidin-2-yl)amino)pyridin-3-yl)piperazine-1-carbonyl)piperazin-1-yl)ethyl)piperazin-1-yl)-1-oxoisoindolin-2-yl)piperidine-2,6-dione], on CDK6, the DC50 is over 200 nM and the Dmax is over 60%. The pIC50 in test [1] was under 6.70. At CDK4, this compound gave a 50% degradation concentration (DC50) of over 200 nM and a Dmax of over 60%.

Consider `CC(=O)c1c(C)c2cnc(Nc3ccc(N4CCN(CCCCN(C)c5ccc6c(c5)C(=O)N(C5CCC(=O)NC5=O)C6=O)CC4)cn3)nc2n(C2CCCC2)c1=O` (centres unmarked) [Compound 59, 5-((4-(4-(6-((6-acetyl-8-cyclopentyl-5-methyl-7-oxo-7,8-dihydropyrido[2,3-d]pyrimidin-2-yl)amino)pyridin-3-yl)piperazin-1-yl)butyl)(methyl)amino)-2-(2,6-dioxopiperidin-3-yl) isoindoline-1,3-dione], for which, at CDK6, the DC50 fell in the range of 50 to 200 nM and the Dmax was over 60%. Besides, in test [1], the pIC50 is 6.70 to 7.30. Moreover, on CDK4, the DC50 was 50 to 200 nM and the Dmax was over 60%.

For the compound `CC(=O)c1c(C)c2cnc(Nc3ccc(N4CCN(C(=O)C5CCN(c6ccc(NC7CCC(=O)NC7=O)cc6)CC5)CC4)cn3)nc2n(C2CCCC2)c1=O` (centres unmarked) [Compound 117, 3-((4-(4-(4-(6-((6-acetyl-8-cyclopentyl-5-methyl-7-oxo-7,8-dihydropyrido[2,3-d]pyrimidin-2-yl)amino)pyridin-3-yl)piperazine-1-carbonyl)piperidin-1-yl)phenyl)amino) piperidine-2,6-dione], at CDK6, the DC50 was in the range of 50 to 200 nM and the Dmax is over 60%. In test [1], the pIC50 is over 7.30. For the same compound, on CDK4, the DC50 is under 50 nM and the Dmax was over 80%.

For `CC(=O)c1c(C)c2cnc(Nc3ccc(N4CCN(C5CCN(C(=O)N6CCC(CCN7CCN(c8ccc9c(c8)C(=O)N(C8CCC(=O)NC8=O)C9=O)CC7)CC6)CC5)CC4)cn3)nc2n(C2CCCC2)c1=O` (centres unmarked) [Compound 87, 5-(4-(2-(1-(4-(4-(6-((6-acetyl-8-cyclopentyl-5-methyl-7-oxo-7,8-dihydropyrido[2,3-d]pyrimidin-2-yl)amino)pyridin-3-yl)piperazin-1-yl)piperidine-1-carbonyl)piperidin-4-yl)ethyl)piperazin-1-yl)-2-(2,6-dioxopiperidin-3-yl) isoindoline-1,3-dione], the 50% degradation concentration (DC50) at CDK6 and on CDK4 was 50 to 200 nM in each case. Also, the Dmax on CDK6 and on CDK4 was over 60% throughout. For the same compound, the pIC50 in test [1] was 6.70 to 7.30.

On CDK6, `Cc1nc2c(F)cc(-c3nc(Nc4ccc(CC5CCN(C(=O)C6CCN(c7ccc(NC8CCC(=O)NC8=O)cc7)CC6)CC5)cn4)ncc3F)cc2n1C(C)C` (centres unmarked) [Compound 164, 3-((4-(4-(4-((6-((5-fluoro-4-(4-fluoro-1-isopropyl-2-methyl-1H-benzo[d]imidazol-6-yl)pyrimidin-2-yl)amino)pyridin-3-yl)methyl)piperidine-1-carbonyl)piperidin-1-yl)phenyl)amino) piperidine-2,6-dione] displayed a half-maximal degradation concentration (DC50) of 50 to 200 nM and a Dmax of over 80%. Further, the pIC50 in test [1] was 6.70 to 7.30. At CDK4, this compound returned a 50% degradation concentration (DC50) of 50 to 200 nM and a Dmax of over 60%.

With `Cc1nc2c(F)cc(-c3nc(Nc4ccc(CC5CCN(CC6CCN(c7ccc(NC8CCC(=O)NC8=O)cc7)CC6)CC5)cn4)ncc3F)cc2n1C(C)C` (centres unmarked) [Compound 160, 3-((4-(4-((4-((6-((5-fluoro-4-(4-fluoro-1-isopropyl-2-methyl-1H-benzo[d]imidazol-6-yl)pyrimidin-2-yl)amino)pyridin-3-yl)methyl)piperidin-1-yl)methyl)piperidin-1-yl)phenyl)amino) piperidine-2,6-dione], at CDK6, the half-maximal degradation concentration (DC50) was under 50 nM and the Dmax was over 80%. Besides, the pIC50 in test [1] is over 7.30. Further, on CDK4, the DC50 is under 50 nM and the Dmax was over 80%.

On to `CC(=O)c1c(C)c2cnc(Nc3ccc(N4CCN(CC5CCN(C(=O)N6CCC(CN7CCN(c8ccc9c(c8)C(=O)N(C8CCC(=O)NC8=O)C9=O)CC7)CC6)CC5)CC4)cn3)nc2n(C2CCCC2)c1=O` (centres unmarked) [Compound 84, 5-(4-((1-(4-((4-(6-((6-acetyl-8-cyclopentyl-5-methyl-7-oxo-7,8-dihydropyrido[2,3-d]pyrimidin-2-yl)amino)pyridin-3-yl)piperazin-1-yl)methyl)piperidine-1-carbonyl)piperidin-4-yl)methyl)piperazin-1-yl)-2-(2,6-dioxopiperidin-3-yl) isoindoline-1,3-dione], for which the DC50 on CDK6 and on CDK4 was 50 to 200 nM throughout. The greatest degradation seen (Dmax) on CDK6 and on CDK4 was over 80% each time. Moreover, the pIC50 in test [1] was over 7.30.

Consider `CC(=O)c1c(C)c2cnc(Nc3ccc(N4CCN(C(=O)N5CCC(N6CCC(c7ccc8c(c7)C(=O)N(C7CCC(=O)NC7=O)C8=O)CC6)CC5)CC4)cn3)nc2n(C2CCCC2)c1=O` (centres unmarked) [Compound 7, 5-(1′-(4-(6-((6-acetyl-8-cyclopentyl-5-methyl-7-oxo-7,8-dihydropyrido[2,3-d]pyrimidin-2-yl)amino)pyridin-3-yl)piperazine-1-carbonyl)-[1,4′-bipiperidin]-4-yl)-2-(2,6-dioxopiperidin-3-yl)isoindoline-1,3-dione], for which the half-maximal degradation concentration (DC50) at CDK6 and on CDK4 was 50 to 200 nM each time. Further, the Dmax on CDK6 and at CDK4 was over 60% in each case. Besides, the pIC50 in test [1] is 6.70 to 7.30.

Turning to `Cc1nc2c(F)cc(-c3nc(Nc4ccc(CN5CCN(CC6CCN(c7ccc8c(c7)C(=O)N(C7CCC(=O)NC7=O)C8=O)CC6)CC5)cn4)ncc3F)cc2n1C(C)C` (centres unmarked) [Compound 149, 2-(2,6-dioxopiperidin-3-yl)-5-(4-((4-((6-((5-fluoro-4-(4-fluoro-1-isopropyl-2-methyl-1H-benzo[d]imidazol-6-yl)pyrimidin-2-yl)amino)pyridin-3-yl)methyl)piperazin-1-yl)methyl)piperidin-1-yl)isoindoline-1,3-dione], at CDK6, the DC50 was under 50 nM and the Dmax is over 80%. The pIC50 in test [1] is over 7.30. At CDK4, this compound registered a DC50 of under 50 nM and a Dmax of over 80%.

As to `Cc1nc2c(F)cc(-c3nc(Nc4ccc(CC5CCN(C(=O)C6CCN(c7ccc8c(c7)CN(C7CCC(=O)NC7=O)C8=O)CC6)CC5)cn4)ncc3F)cc2n1C(C)C` (centres unmarked) [Compound 162, 3-(5-(4-(4-((6-((5-fluoro-4-(4-fluoro-1-isopropyl-2-methyl-1H-benzo[d]imnidazol-6-yl)pyrimidin-2-yl)amino)pyridin-3-yl)methyl)piperidine-1-carbonyl)piperidin-1-yl)-1-oxoisoindolin-2-yl)piperidine-2,6-dione], the values for the half-maximal degradation concentration (DC50) at CDK6 and on CDK4 were over 200 nM and 50 to 200 nM, respectively. The maximal degradation (Dmax) at CDK6 and on CDK4 was over 60% each time. For the same compound, the pIC50 in test [1] is 6.70 to 7.30.

At CDK6, `CC(=O)c1c(C)c2cnc(Nc3ccc(N4CCN(C5CCN(C(=O)N6CCC(c7ccc8c(c7)C(=O)N(C7CCC(=O)NC7=O)C8=O)CC6)CC5)CC4)cn3)nc2n(C2CCCC2)c1=O` (centres unmarked) [Compound 37, 5-(1-(4-(4-(6-((6-acetyl-8-cyclopentyl-5-methyl-7-oxo-7,8-dihydropyrido[2,3-d]pyrimidin-2-yl)amino)pyridin-3-yl)piperazin-1-yl)piperidine-1-carbonyl)piperidin-4-yl)-2-(2,6-dioxopiperidin-3-yl)isoindoline-1,3-dione] displayed a 50% degradation concentration (DC50) of over 200 nM and a Dmax of over 50%. Also, the pIC50 in test [1] is under 6.70. Further, at CDK4, the DC50 was over 200 nM and the Dmax was over 50%.

With `Cc1nc2c(F)cc(-c3nc(Nc4ccc(CN5CCN(CC6CCCN(c7ccc(N8CCC(=O)NC8=O)cc7)C6)CC5)cn4)ncc3F)cc2n1C(C)C` (centres unmarked) [Compound 110, 1-(4-(3-((4-((6-((5-fluoro-4-(4-fluoro-1-isopropyl-2-methyl-1H-benzo[d]imidazol-6-yl)pyrimidin-2-yl)amino)pyridin-3-yl)methyl)piperazin-1-yl)methyl)piperidin-1-yl)phenyl) dihydropyrimidine-2,4(1H,3H)-dione], the 50% degradation concentration (DC50) on CDK6 and on CDK4 was under 50 nM in each case. For the same compound, the Dmax on CDK6 and at CDK4 was over 80% in each case. In addition, in test [1], the pIC50 is over 7.30.

`CC(=O)c1c(C)c2cnc(Nc3ccc(N4CCN(CC5CCN(c6ccc7c(c6)C(=O)N(C6CCC(=O)NC6=O)C7=O)CC5)CC4)cn3)nc2n(C2CCCC2)c1=O` (centres unmarked) [Compound 65, 5-(4-((4-(6-((6-acetyl-8-cyclopentyl-5-methyl-7-oxo-7,8-dihydropyrido[2,3-d]pyrimidin-2-yl)amino)pyridin-3-yl)piperazin-1-yl)methyl)piperidin-1-yl)-2-(2,6-dioxopiperidin-3-yl) isoindoline-1,3-dione]: on CDK6, the DC50 was under 50 nM and the maximal degradation (Dmax) was over 80%. Also, the pIC50 in test [1] is over 7.30. The “inhibition of cell proliferation of Mino cells” value in test [1] (Mino cells, 0-1 μM, result in words) is “dose-dependent inhibition of cell proliferation”. On CDK4, this compound registered a half-maximal degradation concentration (DC50) of under 50 nM and a Dmax of over 80%.

On CDK6, `Cc1nc2c(F)cc(-c3nc(Nc4ccc(CC5CCN(C(=O)C6CN(c7ccc8c(c7)CN(C7CCC(=O)NC7=O)C8=O)C6)CC5)cn4)ncc3F)cc2n1C(C)C` (centres unmarked) [Compound 144, 3-(5-(3-(4-((6-((5-fluoro-4-(4-fluoro-1-isopropyl-2-methyl-1H-benzo[d]imidazol-6-yl)pyrimidin-2-yl)amino)pyridin-3-yl)methyl)piperidine-1-carbonyl)azetidin-1-yl)-1-oxoisoindolin-2-yl) piperidine-2,6-dione] yielded a 50% degradation concentration (DC50) of 50 to 200 nM and a Dmax of over 80%. The pIC50 in test [1] is over 7.30. Besides, on CDK4, the DC50 was 50 to 200 nM and the greatest degradation seen (Dmax) was over 80%.
